Assays:
[1] = Analysis of body weights in AIA model; format: in vivo, Lewis rats; details: Table 19 study; compound 10 mg/kg once per day P.O.
Experimental: (§1) Lewis rats (female, five-weeks old) were purchased from Central Lab Animal, Inc. and kept in a controlled environment with a temperature at 22±2° C., a humidity at 44-56% and a light/dark cycle of 12 hours, while being allowed to have a free access to standard diet and water for one week before an examination. Complete Freund's Adjuvant (Chondrex) containing 10 mg/mL of heat killed mycobacteria toxin was fully mixed together, after which […] thereof was taken and subcutaneously injected into each upper tail of the rats to induce arthritis therefrom.
(§2) To administer a drug of compound 374 (SM374) and evaluate an effect thereof, the rats were divided into 11 groups (9, 10 or 11 animals per group) one day before or nine days after inducing arthritis, after which each group was classified according to administered substances (vehicle, compound 374 (SM374) or methotrexate (MTX)) and administration routes (oral administration (P.O.) or intraperitoneal administration (I.P.)) as shown in a following table 13.
(§3) Also, in order to administer a drug of compounds 374, 413, 484, 530 and 652 (SM374, SM413, SM484, SM530 and SM652) and evaluate an effect thereof, the rats were divided into 13 groups (9 or 10 animals per group) eight days after inducing arthritis, and each group was classified according to administered substances (vehicle, SM374, SM413, SM484, SM530, SM652 and MTX) and administration routes (oral or intraperitoneal administration) as shown in a following table 14.
An analysis was made on the body weight of rats dosed with compound 374 (SM 374, once per day) or MIX (once per week or twice per week) from 9th day to 16th day after inducing AIA. […]

[2] = system: adjuvant-induced arthritis (AIA) model; assay: Clinical score analysis in adjuvant-induced arthritis (AIA) model; format: in vivo, Lewis rats; design: Clinical score 9th day / Clinical score 13th day / Clinical score 16th day / Clinical score 11th day / Clinical score 15th day / Clinical score 18th day: scale not given here; details: Table 17 study, compound 10 mg/kg once per day P.O.; for Rate of reduction in clinical scores (%): 18th day vs vehicle; for Clinical score 11th day / Clinical score 15th day / Clinical score 18th day: Mean ± SEM
Experimental: as §1, §2, §3
To identify the efficacy of the inventive composition on preventing or treating arthritis in an AIA model, an analysis was made on the clinical scores of rats dosed with a compound 374 (SM 374, once per day) or MTX (once per week or twice per week) from 9th day to 16th day after inducing arthritis.
Particularly, a degree of swelling, erythema, etc., in each joint of the rats were observed, after which clinical scores were calculated according to a scoring system described in a following table 15, such that the clinical scores on four joints were added up to obtain total scores for each rat (Vishwakarma et al., 2013).
To identify the efficacy of the inventive composition on preventing or treating arthritis in an AIA model, an analysis was made on the clinical scores of rats dosed with compounds 374, 413, 484, 530 and 652 (SM374, SM413, SM484, SM530 and SM652, once per day) or MIX (once per week) from 8th day to 18th day after inducing arthritis.

Compound | Body weight (g) 8th day [1] | Body weight (g) 11th day [1] | Body weight (g) 15th day [1] | Body weight (g) 18th day [1] | Rate of reduction in clinical scores (%) [2] | Clinical score 11th day [2] | Clinical score 15th day [2] | Clinical score 18th day [2]
O=C(NO)c1ccc(CN(C(=O)N2CCOCC2)c2cccc(F)c2)cc1 [SM530] | 151.2 ± 2.6 g | 153.0 ± 2.1 g | 161.1 ± 2.1 g | 159.2 ± 4.5 g | 31.1% | 0.0 ± 0.0 | 1.2 ± 0.5 | 4.2 ± 1.6
COc1cccc(N(Cc2ccc(C(=O)NO)cc2)C(=O)N2CCOCC2)c1 [SM484, N-(4-(hydroxycarbamoyl)benzyl)-N-(3-methoxyphenyl)morpholine-4-carboxamide] | 151.4 ± 2.5 g | 154.7 ± 2.1 g | 160.7 ± 3.3 g | 158.3 ± 4.6 g | 19.7% | 0.0 ± 0.0 | 2.9 ± 1.3 | 4.9 ± 1.7
O=C(NO)c1ccc(CN(C(=O)N2CCCOCC2)c2cccc(F)c2)cc1 [SM652, N-(3-fluorophenyl)-N-(4-(hydroxycarbamoyl)benzyl)-1,4-oxazepane-4-carboxamide] | 152.8 ± 2.4 g | 157.6 ± 1.9 g | 158.8 ± 1.6 g | 156.8 ± 3.9 g | 19.7% | 0.0 ± 0.0 | 1.4 ± 0.9 | 4.9 ± 1.6
